This passage reports EC50 results from patent publication US20230355622A1, “METHODS OF CHEMOVACCINATION AGAINST PLASMODIUM INFECTIONS” (Merck Sharp & Dohme LLC, priority 2020, published 2023).

One assay concerns parasite. Kind of assay: Parasite LDH growth assay (Parasite Assay), antiparasite potency. Type of assay: cell-based. To be noted: 72 h, parasite LDH growth assay, ring stage parasites, 72 hours incubation at 37° C.; read-out: EC50. As to the method:
Assessing Antiparasite Potency in a Parasite LDH Growth Assay (Parasite Assay)
The parasite stock was maintained at 4% haematocrit in RPMI-Hepes media buffered with sodium bicarbonate and supplemented with 5% heat inactivated human serum and 0.5% albumax.
On the day of assay set up, a blood smear of the parasite culture was Giemsa stained and counted. The parasitemia was adjusted to 0.7% rings and the haematocrit was diluted to 2% in RPMI-Hepes media buffered with sodium bicarbonate and supplemented with 5% heat inactivated human serum and 0.5% albumax. 30 ul of diluted parasites are then added into 10 ul of media+compound in pre-prepared Greiner TC assay plates. Parasite assay plates were placed in gassed humidified boxes in single layer and allowed to incubate at 37° C. for 72 hours. After 72 hours growth, assay plates are sealed with parafilm and frozen flat, in single file at −80° C. overnight. On the following day, assay plates are allowed to thaw at room temperature for 4 hours to which an LDH assay is performed to measure parasite growth.
As usually defined, the EC50 is the midpoint of the concentration-response curve. Regarding `CC(C)[C@]1(C)CC(=O)N([C@@H]2CCOc3ccc(C(=O)NC4c5ccccc5OC(C)(C)C4O)cc32)C(=N)N1` (single isomer, unassigned) [Example 11A], the EC50 is 0.9 nM. Same read-out and setting: with `CCC1C[C@@H](N2C(=N)NC(CC)(CC)CC2=O)c2cc(C(=O)NC3c4ccccc4OC(C)(C)C3O)ccc2O1` (single isomer, unassigned) [Example 13A] the figure was 0.8 nM; with `CCC1C[C@@H](N2C(=N)NC(CC)(CC)CC2=O)c2cc(C(=O)NC3c4ccccc4OC(C)(C)C3O)ccc2O1` (single isomer, unassigned) [Example 13B], 54 nM. With `CCC1(CC)CC(=O)N([C@@H]2CCOc3ccc(C(=O)NC4c5cc(F)ccc5C[C@H]4O)cc32)C(=N)N1` (stereo in doubt) [Example 148, (4R)-4-(4,4-diethyl-2-imino-6-oxo-hexahydropyrimidin-1-yl)-N-[(1R,2R)-6-fluoro-2-hydroxy-indan-1-yl]chromane-6-carboxamide], the EC50 was determined as 2.7 nM. Consider `CCC1(CC)CC(=O)N(C2CCOc3ccc(C(=O)N[C@@H]4c5ccccc5OC(C)(C)[C@H]4O)cc32)C(=N)N1` (stereo partly drawn) [Example 2A, 4-(4,4-diethyl-2-imino-6-oxotetrahydropyrimidin-1(2H)-yl)-N-((3S,4R)-3-hydroxy-2,2-dimethylchroman-4-yl)chroman-6-carboxamide], for which the EC50 is 0.5 nM.

For the compound `CCC1(CC)CC(=O)N([C@@H]2CCOc3ccc(C(=O)N[C@H]4CC(C)(C)Oc5ccc(F)cc54)cc32)C(=N)N1` [Example 7A, (R)-4-(4,4-diethyl-2-imino-6-oxotetrahydropyrimidin-1(2H)-yl)-N-((S)-6-fluoro-2,2-dimethylchroman-4-yl)chromane-6-carboxamide], the EC50 came out at 0.4 nM. `CC(C)[C@]1(C)CC(=O)N([C@@H]2CCOc3ccc(C(=O)N[C@H]4CC(C)(C)Oc5ccccc54)cc32)C(=N)N1` [Example 10A, (R)-N-((S)-2,2-dimethylchroman-4-yl)-4-((S)-2-imino-4-isopropyl-4-methyl-6-oxotetrahydropyrimidin-1(2H)-yl)chromane-6-carboxamide]: the EC50 was 0.5 nM. Same read-out and setting: with `CCC1(CC)CC(=O)N([C@@H]2CCOc3ccc(C(=O)N[C@H]4CC(C)(C)Oc5ccc(Br)cc54)cc32)C(=N)N1` [Example 14A, (R)-N-((S)-6-bromo-2,2-dimethylchroman-4-yl)-4-(4,4-diethyl-2-imino-6-oxotetrahydropyrimidin-1(2H)-yl)chromane-6-carboxamide] the figure was 1 nM. On to `CCC1(CC)CC(=O)N([C@@H]2CCOc3ccc(C(=O)N[C@@H]4c5cc(Br)ccc5OC(C)(C)[C@H]4O)cc32)C(=N)N1` [Example 15A, (R)-N-((3S,4R)-6-bromo-3-hydroxy-2,2-dimethylchroman-4-yl)-4-(4,4-diethyl-2-imino-6-oxotetrahydropyrimidin-1(2H)-yl)chromane-6-carboxamide], for which the EC50 stood at 0.3 nM. In the case of `CCC1(CC)CC(=O)N([C@@H]2CC(COC)Oc3ccc(C(=O)N[C@@H]4c5ccccc5OC(C)(C)[C@H]4O)cc32)C(=N)N1` (stereo partly drawn) [Example 18A, (4R)-4-(4,4-diethyl-2-imino-6-oxotetrahydropyrimidin-1(2H)-yl)-N-((3S,4R)-3-hydroxy-2,2-dimethylchroman-4-yl)-2-(methoxymethyl)chromane-6-carboxamide], the EC50 came out at 0.8 nM. On to `CCC1(CC)CC(=O)N([C@@H]2CCOc3ccc(C(=O)N[C@@H]4c5cc(Cl)ccc5OC(C)(C)[C@H]4O)cc32)C(=N)N1` [Example 19A, (R)-N-((3S,4R)-6-chloro-3-hydroxy-2,2-dimethylchroman-4-yl)-4-(4,4-diethyl-2-imino-6-oxotetrahydropyrimidin-1(2H)-yl)chromane-6-carboxamide], for which the EC50 came to 0.3 nM. For `CCC1(CC)CC(=O)N([C@@H]2CCOc3ccc(C(=O)N[C@@H]4c5cc(C#N)ccc5OC(C)(C)[C@H]4O)cc32)C(=N)N1` [Example 20A, (R)-N-((3S,4R)-6-cyano-3-hydroxy-2,2-dimethylchroman-4-yl)-4-(4,4-diethyl-2-imino-6-oxotetrahydropyrimidin-1(2H)-yl)chromane-6-carboxamide], the EC50 was 0.8 nM. On to `CCC1(CC)CC(=O)N([C@@H]2CCOc3ccc(C(=O)N[C@H]4CC(C)(C)Oc5ccc(C#N)cc54)cc32)C(=N)N1` [Example 21A, (R)-N-((S)-6-cyano-2,2-dimethylchroman-4-yl)-4-(4,4-diethyl-2-imino-6-oxotetrahydropyrimidin-1(2H)-yl)chromane-6-carboxamide], for which the EC50 is 0.8 nM. Consider `CCC1(CC)CC(=O)N([C@@H]2CC3(COC3)Oc3ccc(C(=O)N[C@H]4CC(C)(C)Oc5ccccc54)cc32)C(=N)N1` [Example 22A, (R)-4-(4,4-diethyl-2-imino-6-oxotetrahydropyrimidin-1(2H)-yl)-N-((S)-2,2-dimethylchroman-4-yl)spiro[chromane-2,3′-oxetane]-6-carboxamide], for which the EC50 stood at 0.7 nM. In the case of `CCC1(CC)CC(=O)N([C@@H]2CC3(COC3)Oc3ccc(C(=O)N[C@@H]4c5ccccc5C[C@H]4O)cc32)C(=N)N1` [Example 23A, (R)-4-(4,4-diethyl-2-imino-6-oxotetrahydropyrimidin-1(2H)-yl)-N-((1R,2R)-2-hydroxy-2,3-dihydro-1H-inden-1-yl)spiro[chromane-2,3′-oxetane]-6-carboxamide], the EC50 is 5 nM. For the compound `CCC1(CC)CC(=O)N([C@@H]2CCOc3ccc(C(=O)N[C@@H]4c5cc(F)ccc5OC(C)(C)[C@H]4O)cc32)C(=N)N1` [Example 25A, (R)-4-(4,4-diethyl-2-imino-6-oxotetrahydropyrimidin-1(2H)-yl)-N-((3S,4R)-6-fluoro-3-hydroxy-2,2-dimethylchroman-4-yl)chromane-6-carboxamide], the EC50 is 0.5 nM. On to `CCC1(CC)CC(=O)N([C@@H]2CCOc3c(Cl)cc(C(=O)N[C@@H]4c5ccccc5OC(C)(C)[C@H]4O)cc32)C(=N)N1` [Example 29A, (R)-8-chloro-4-(4,4-diethyl-2-imino-6-oxotetrahydropyrimidin-1(2H)-yl)-N-((3S,4R)-3-hydroxy-2,2-dimethylchroman-4-yl)chromane-6-carboxamide], for which the EC50 came out at 1 nM.

Turning to `CCC1(CC)CC(=O)N([C@@H]2CCOc3ccc(C(=O)N[C@@H]4c5ccccc5OC(C)(C)[C@H]4O)nc32)C(=N)N1` [Example 30A, (R)-4-(4,4-diethyl-2-imino-6-oxotetrahydropyrimidin-1(2H)-yl)-N-((3S,4R)-3-hydroxy-2,2-dimethylchroman-4-yl)-3,4-dihydro-2H-pyrano[3,2-b]pyridine-6-carboxamide], the EC50 turned out to be 0.8 nM. Consider `CCC1(CC)CC(=O)N([C@@H]2CCOc3ccc(C(=O)N[C@H]4CC(C)(C)Oc5ccccc54)nc32)C(=N)N1` [Example 31B, (R)-4-(4,4-diethyl-2-imino-6-oxotetrahydropyrimidin-1(2H)-yl)-N-((S)-2,2-dimethylchroman-4-yl)-3,4-dihydro-2H-pyrano[3,2-b]pyridine-6-carboxamide], for which the EC50 was 1 nM.

Staying with this assay, now noted: parasite LDH growth assay, ring stage parasites, 72 hours incubation at 37° C.; read-out: EC50.
As for `CCC1(CC)CC(=O)N(C2c3cc(C(=O)N[C@@H]4c5ccccc5OC(C)(C)[C@H]4O)ccc3CC2OC)C(=N)N1` (single isomer, unassigned) [Example 251A], the EC50 came to 0.4 nM. Still for that read-out and setting: the figure for `CCC1(CC)CC(=O)N([C@@H]2CCOc3ccc(C(=O)NC4c5ccccc5OCC4O)cc32)C(=N)N1` (stereo partly drawn) [Example 8A, (4R)-4-(4,4-diethyl-2-imino-6-oxotetrahydropyrimidin-1(2H)-yl)-N-(3-hydroxychroman-4-yl)chromane-6-carboxamide] is 10 nM. As for `CCC1C[C@@H](N2C(=N)NC(CC)(CC)CC2=O)c2cc(C(=O)N[C@@H]3c4ccccc4C[C@H]3O)ccc2O1` (stereo partly drawn) [Example 9A, (4R)-4-(4,4-diethyl-2-imino-6-oxotetrahydropyrimidin-1(2H)-yl)-2-ethyl-N-((1R,2R)-2-hydroxy-2,3-dihydro-1H-inden-1-yl)chromane-6-carboxamide], the EC50 came to 0.9 nM. Consider `CCC1(CC)CC(=O)N([C@@H]2CC(COC)Oc3ccc(C(=O)N[C@H]4CC(C)(C)Oc5ccccc54)cc32)C(=N)N1` (stereo partly drawn) [Example 16A, (4R)-4-(4,4-diethyl-2-imino-6-oxotetrahydropyrimidin-1(2H)-yl)-N-((S)-2,2-dimethylchroman-4-yl)-2-(methoxymethyl)chromane-6-carboxamide], for which the EC50 turned out to be 0.6 nM. With `CCC1(CC)CC(=O)N([C@@H]2CC(C)(C)Oc3ccc(C(=O)N[C@@H]4c5ccccc5CC4(C)O)cc32)C(=N)N1` (stereo partly drawn) [Example 42A, (4R)-4-(4,4-diethyl-2-imino-6-oxotetrahydropyrimidin-1(2H)-yl)-N-((1R)-2-hydroxy-2-methyl-2,3-dihydro-1H-inden-1-yl)-2,2-dimethylchromane-6-carboxamide], the EC50 was determined as 1 nM. With `CCC1(CC)CC(=O)N([C@@H]2CC(C)(C)Oc3ccc(C(=O)N[C@@H]4c5cc(F)ccc5OC(C)(C)[C@H]4O)cc32)C(=N)N1` [Example 53A, (R)-4-(4,4-diethyl-2-imino-6-oxotetrahydropyrimidin-1(2H)-yl)-N-((3S,4R)-6-fluoro-3-hydroxy-2,2-dimethylchroman-4-yl)-2,2-dimethylchromane-6-carboxamide], the EC50 was found to be 0.3 nM. For the compound `CCC1(CC)CC(=O)N([C@@H]2CCOc3ccc(C(=O)NC4c5ccccc5OC4(C)COC)cc32)C(=N)N1` (stereo partly drawn) [Example 64B, (4R)-4-(4,4-diethyl-2-imino-6-oxotetrahydropyrimidin-1(2H)-yl)-N-(2-(methoxymethyl)-2-methyl-2,3-dihydrobenzofuran-3-yl)chromane-6-carboxamide], the EC50 came to 0.9 nM.
